Experimental findings from ChEMBL document CHEMBL4715696, “In vitro synergistic anticancer activity of the combination of T-type calcium channel blocker and chemotherapeutic agent in A549 cells” (Bioorg Med Chem Lett, 2016) are described below.

Some results are limits rather than exact numbers.

The nature of data set [1]: Protein binding in human plasma at 10 uM after 4 hrs. It is filed as ADME, cell-free. Particulars: read-out: PPB (converted).
Data set [2] can be described thus: Protein binding in rat plasma at 10 uM after 4 hrs. It is filed as ADME, cell-free. The settings on record: read-out: PPB (converted).
Data set [3] is described as follows: Metabolic stability in human plasma assessed as parent compound remaining at 10 uM measured after 2 hrs. It is filed as ADME, cell-free. Particulars: read-out: Stabilty.
The nature of data set [4]: Metabolic stability in rat plasma assessed as parent compound remaining at 10 uM measured after 2 hrs. It is filed as ADME, cell-free. Particulars: read-out: Stabilty.
Data set [5] concerns the target Voltage-dependent T-type calcium channel subunit alpha-1G (Homo sapiens, UniProt O43497). The data set can be described thus: Inhibition of T type calcium channel Cav3.1 (unknown origin) expressed in HEK293T cells by patch clamp method relative to control. It is filed as cell-based.
For data set [6], the system named is A549. Description: Cytotoxicity against human A549 cells assessed as reduction in cell viability by MTT assay. It is filed as functional, cell-based. On the technique in general: Tetrazolium dyes change colour on reduction, which living cells bring about.
Data set [7] relates to A549. Description: Induction of cell cycle arrest in human A549 cells assessed as accumulation at G1 phase at 5 uM after 48 hrs by flow cytometric analysis (reference value: 57.8 to 65.5%). It is filed as functional.
Data set [8] deals with A549. Description: Induction of cell cycle arrest in human A549 cells assessed as accumulation at G1 phase at 5 uM after 24 hrs by flow cytometric analysis (reference value: 53.1%). It is filed as functional.
In data set [9] the test system is A549. Description: Induction of cell cycle arrest in human A549 cells assessed as accumulation at G2/M phase at 5 uM after 24 hrs by flow cytometric analysis (reference value: 21.6%). It is filed as functional. On the technique in general: A flow cytometer gives signals particle by particle.
The subject of data set [10] is A549. The data set can be described thus: Induction of cell cycle arrest in human A549 cells assessed as accumulation at sub G1 phase at 5 uM after 48 hrs by flow cytometric analysis (reference value: 1.9 to 4.9%). It is filed as functional.
In data set [11] the test system is A549. The data set can be described thus: Induction of cell cycle arrest in human A549 cells assessed as accumulation at S phase at 5 uM after 48 hrs by flow cytometric analysis (reference value: 10.4 to 12%). It is filed as functional.
Data set [12] deals with A549. Description: Induction of cell cycle arrest in human A549 cells assessed as accumulation at G2/M phase at 5 uM after 48 hrs by flow cytometric analysis (reference value: 22.1 to 25.4 %). It is filed as functional.
Data set [13] concerns A549. Description: Induction of cell cycle arrest in human A549 cells assessed as accumulation at sub G1 phase at 5 uM after 24 hrs by flow cytometric analysis (reference value: 7.8%). It is filed as functional.
For data set [14], the system named is A549. The data set can be described thus: Induction of cell cycle arrest in human A549 cells assessed as accumulation at S phase at 5 uM after 24 hrs by flow cytometric analysis (reference value: 17.6%). It is filed as functional.
Data set [15] relates to A549. Description: Induction of cell cycle arrest in human A549 cells assessed as accumulation at G2/M phase at 10 uM after 24 hrs by flow cytometric analysis (reference value: 21.6%). It is filed as functional.
Data set [16] deals with A549. Description: Induction of cell cycle arrest in human A549 cells assessed as accumulation at sub G1 phase at 10 uM after 48 hrs by flow cytometric analysis (reference value: 4.9%). It is filed as functional.
Data set [17] relates to A549. Description: Induction of cell cycle arrest in human A549 cells assessed as accumulation at G1 phase at 10 uM after 24 hrs by flow cytometric analysis (reference value: 53.1%). It is filed as functional.
Data set [18] relates to A549. Description: Induction of cell cycle arrest in human A549 cells assessed as accumulation at S phase at 10 uM after 24 hrs by flow cytometric analysis (reference value: 17.6%). It is filed as functional.
Data set [19] has as its system A549. Description: Induction of cell cycle arrest in human A549 cells assessed as accumulation at G2/M phase at 10 uM after 48 hrs by flow cytometric analysis (reference value: 25.4%). It is filed as functional.
Data set [20] deals with A549. The data set can be described thus: Induction of cell cycle arrest in human A549 cells assessed as accumulation at sub G1 phase at 10 uM after 24 hrs by flow cytometric analysis (reference value: 7.8%). It is filed as functional.
In data set [21] the test system is A549. The data set can be described thus: Induction of cell cycle arrest in human A549 cells assessed as accumulation at S phase at 10 uM after 48 hrs by flow cytometric analysis (reference value: 12%). It is filed as functional.
Data set [22] concerns A549. The data set can be described thus: Induction of cell cycle arrest in human A549 cells assessed as accumulation at G1 phase at 10 uM after 48 hrs by flow cytometric analysis (reference value: 57.8%). It is filed as functional.

Voltage-dependent T-type calcium channel subunit alpha-1G, sequence (O43497 whole entry): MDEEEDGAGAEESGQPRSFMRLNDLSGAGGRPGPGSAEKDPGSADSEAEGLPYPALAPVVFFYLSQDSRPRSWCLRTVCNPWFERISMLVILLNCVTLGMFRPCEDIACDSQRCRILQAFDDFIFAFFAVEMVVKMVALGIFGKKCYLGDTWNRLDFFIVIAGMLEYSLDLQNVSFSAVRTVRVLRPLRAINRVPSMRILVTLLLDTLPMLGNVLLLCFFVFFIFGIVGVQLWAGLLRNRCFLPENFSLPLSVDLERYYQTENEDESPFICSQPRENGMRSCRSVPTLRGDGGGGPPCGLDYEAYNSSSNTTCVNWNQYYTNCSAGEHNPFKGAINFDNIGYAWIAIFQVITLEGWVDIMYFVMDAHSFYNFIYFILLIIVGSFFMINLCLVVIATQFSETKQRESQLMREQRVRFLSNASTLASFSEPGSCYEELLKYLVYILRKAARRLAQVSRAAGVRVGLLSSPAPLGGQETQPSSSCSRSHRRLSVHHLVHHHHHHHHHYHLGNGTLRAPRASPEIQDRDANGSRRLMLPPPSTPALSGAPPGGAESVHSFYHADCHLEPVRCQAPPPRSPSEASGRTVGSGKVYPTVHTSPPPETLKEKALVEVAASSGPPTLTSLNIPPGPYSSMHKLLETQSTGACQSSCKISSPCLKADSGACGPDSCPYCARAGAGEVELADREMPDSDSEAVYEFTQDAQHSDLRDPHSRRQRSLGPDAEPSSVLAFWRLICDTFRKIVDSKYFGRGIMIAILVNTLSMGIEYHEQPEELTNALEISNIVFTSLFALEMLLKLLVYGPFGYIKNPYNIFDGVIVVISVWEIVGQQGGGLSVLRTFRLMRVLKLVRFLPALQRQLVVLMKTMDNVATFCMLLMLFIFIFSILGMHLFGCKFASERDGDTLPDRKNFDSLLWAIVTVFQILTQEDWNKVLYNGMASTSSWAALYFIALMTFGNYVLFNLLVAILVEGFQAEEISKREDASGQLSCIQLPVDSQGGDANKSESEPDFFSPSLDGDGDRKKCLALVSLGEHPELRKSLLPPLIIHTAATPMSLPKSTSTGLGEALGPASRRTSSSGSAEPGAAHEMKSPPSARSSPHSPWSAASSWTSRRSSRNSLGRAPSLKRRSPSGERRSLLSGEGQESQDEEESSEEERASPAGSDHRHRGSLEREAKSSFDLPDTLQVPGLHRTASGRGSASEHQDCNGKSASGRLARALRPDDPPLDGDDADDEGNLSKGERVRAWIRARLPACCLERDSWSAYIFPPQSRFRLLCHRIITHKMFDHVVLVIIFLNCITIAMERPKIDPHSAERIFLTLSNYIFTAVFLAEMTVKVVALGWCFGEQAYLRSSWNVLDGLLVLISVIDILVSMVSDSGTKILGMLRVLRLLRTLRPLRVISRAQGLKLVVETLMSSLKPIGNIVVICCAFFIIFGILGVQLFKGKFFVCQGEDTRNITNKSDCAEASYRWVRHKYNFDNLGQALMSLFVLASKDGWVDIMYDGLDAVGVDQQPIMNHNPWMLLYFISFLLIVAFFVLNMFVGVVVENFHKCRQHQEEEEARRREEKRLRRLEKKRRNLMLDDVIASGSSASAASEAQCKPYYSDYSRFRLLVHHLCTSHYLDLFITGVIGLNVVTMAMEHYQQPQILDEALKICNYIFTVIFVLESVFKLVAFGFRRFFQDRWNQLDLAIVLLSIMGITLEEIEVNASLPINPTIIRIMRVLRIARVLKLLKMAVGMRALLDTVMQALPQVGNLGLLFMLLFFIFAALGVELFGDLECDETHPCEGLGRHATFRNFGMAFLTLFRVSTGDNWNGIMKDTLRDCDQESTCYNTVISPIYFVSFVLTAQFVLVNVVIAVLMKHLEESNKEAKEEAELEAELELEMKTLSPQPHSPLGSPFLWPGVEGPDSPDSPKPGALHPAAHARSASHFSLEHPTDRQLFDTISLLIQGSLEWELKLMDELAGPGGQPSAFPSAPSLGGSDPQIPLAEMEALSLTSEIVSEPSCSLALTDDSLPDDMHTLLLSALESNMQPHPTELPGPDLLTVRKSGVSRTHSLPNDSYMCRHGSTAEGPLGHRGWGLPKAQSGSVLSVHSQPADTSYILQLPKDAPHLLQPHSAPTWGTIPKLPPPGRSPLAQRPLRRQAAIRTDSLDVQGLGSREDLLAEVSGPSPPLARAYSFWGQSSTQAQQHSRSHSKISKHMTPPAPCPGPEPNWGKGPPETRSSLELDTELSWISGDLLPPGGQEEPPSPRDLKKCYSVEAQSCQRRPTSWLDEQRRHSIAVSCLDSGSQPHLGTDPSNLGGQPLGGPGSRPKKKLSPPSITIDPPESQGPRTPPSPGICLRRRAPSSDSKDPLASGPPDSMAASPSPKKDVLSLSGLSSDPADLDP

Regarding `CC(=O)CC(c1ccccc1)c1c(O)c2ccccc2oc1=O` (stereo not drawn) [WARFARIN], the fraction unbound at 4 h, 10 µM in [1] was 0.022; in data set [2] it was 0.017.

Consider `CCN(CC)CCOC(=O)c1ccc(N)cc1` [PROCAINE], for which the remaining at 2 h, 10 µM was less than 5% in data set [3] and more than 50% in [4].

For `CN(C)CCCCCN(C)C1=Nc2ccccc2C(CC(=O)NCc2ccccc2)N1c1ccc(-c2ccccc2)cc1.Cl.Cl` (stereo not drawn), the IC50 – broadly, the concentration at which inhibition is half-maximal – is 0.51 µM in data set [5] and 4.7 µM in the data set on A549 [6]. Besides, the Activity in the data set with A549 [7] was 1.2%; in the data set with A549 [8] it was 33.6%; in the data set on A549 [9] it was 2.2%; with A549 [10], 98.1%; in the data set on A549 [11], 0.6%; in the data set with A549 [12], 0.1%. The Activity is given as 55.3% with A549 [13] and 8.8% with A549 [14].

With `COCC(=O)O[C@]1(CCN(C)CCCc2nc3ccccc3[nH]2)CCc2cc(F)ccc2[C@@H]1C(C)C` [MIBEFRADIL], the Activity in the data set with A549 [15] stood at 13.4%; in the data set with A549 [16], 10%; with A549 [17], 66.1%; with A549 [18] it was 10.9%; in the data set on A549 [19] it was 11.2%; with A549 [20], 9.6%. Also, the Activity in the data set with A549 [21] stood at 12%; with A549 [22], 66.8%. The IC50 in the data set with A549 [6] was 31.4 µM.
